Source: patent US7439017B2, “Assays for measuring nucleic acid binding proteins and enzyme activities” (BioVeris Corporation, priority 1998, dated 2008)

Tested on: DNA substrate containing the NFkβ consensus sequence
Assay: DNase protection assay for DNA-protein interactions (ECL)
Type: binding
Procedure: This example illustrates the use of the invention to measure protein-DNA interactions, specifically, the binding of the transcription factor NFkβ with its consensus DNA sequence. A schematic depicting the assay format can be found in the detailed description of the invention. DNAse 1 and NFkβ were purchased from Promega Corp. A DNA substrate containing a consensus DNA sequence for NFk was prepared by Midland Certified Reagent Co. by solid phase synthesis. The sequence of the substrate is shown below. The nucleotides shown in brackets were linked by phosphorothioate linkages; the other linkages were standard phosphodiester bonds. […]
The labeled DNA substrate (50 fmol), poly dI-dC (1 ug, to reduce non-specific protein-DNA interactions) and varying amounts of recombinant NFkβ (p50 subunit) were combined in a 20 uL volume and incubated for 30 min. at room temperature. […] The reaction mixture was introduced into an ORIGEN Analyzer (IGEN International) running in Magnetic Capture Mode and the ECL signal from RuBpy on the magnetic beads was determined in the presence of a solution containing tripropylamine (ORIGEN Assay Buffer, IGEN International). […]
The specificity of the assay was determined by replacing the specific binding protein NFkβ with other DNA binding proteins specific for sequences not present on the DNA substrate (the phosphorothioate containing substrate was used).

AP-2: DNA binding protein specific for sequences not present on the DNA substrate
nuclease protection of the DNA substrate containing the NFkβ consensus sequence (in words): no ability to protect against nuclease attack | ECL Signal (specificity test, DNase added, phosphorothioate containing NFkβ consensus substrate): 32289
